From ChEMBL document CHEMBL3792282, “Cinnamic acid amides from Tribulus terrestris displaying uncompetitive α-glucosidase inhibition” (Eur J Med Chem, 2016) come the findings set out here.

The source made the active and inactive calls. No cut-off for these calls is given here.

Broadly, the IC50 is the point on the concentration scale where inhibition reaches its midpoint. Read a high IC50 as a need for much substance. The Ki is a measure of affinity in units of concentration, obtained from inhibition or displacement. Read a low Ki as higher affinity.

Assay [1] is described as follows: (§1) Inhibition of baker's yeast alpha-glucosidase using pNPG as substrate by spectrophotometry. On the set-up: species or system Saccharomyces cerevisiae.
Assay [2] is described as follows: Uncompetitive inhibition of baker's yeast alpha-glucosidase using pNPG as substrate by Cornish-Bowden plot analysis. Further details: species or system Saccharomyces cerevisiae.
The test system of assay [3] is Saccharomyces cerevisiae. The assay is described as §1.
Assay [4] addresses T1, Beta-glucosidase (Homo sapiens) (UniProt Q9HCG7).
T1 sequence (whole entry): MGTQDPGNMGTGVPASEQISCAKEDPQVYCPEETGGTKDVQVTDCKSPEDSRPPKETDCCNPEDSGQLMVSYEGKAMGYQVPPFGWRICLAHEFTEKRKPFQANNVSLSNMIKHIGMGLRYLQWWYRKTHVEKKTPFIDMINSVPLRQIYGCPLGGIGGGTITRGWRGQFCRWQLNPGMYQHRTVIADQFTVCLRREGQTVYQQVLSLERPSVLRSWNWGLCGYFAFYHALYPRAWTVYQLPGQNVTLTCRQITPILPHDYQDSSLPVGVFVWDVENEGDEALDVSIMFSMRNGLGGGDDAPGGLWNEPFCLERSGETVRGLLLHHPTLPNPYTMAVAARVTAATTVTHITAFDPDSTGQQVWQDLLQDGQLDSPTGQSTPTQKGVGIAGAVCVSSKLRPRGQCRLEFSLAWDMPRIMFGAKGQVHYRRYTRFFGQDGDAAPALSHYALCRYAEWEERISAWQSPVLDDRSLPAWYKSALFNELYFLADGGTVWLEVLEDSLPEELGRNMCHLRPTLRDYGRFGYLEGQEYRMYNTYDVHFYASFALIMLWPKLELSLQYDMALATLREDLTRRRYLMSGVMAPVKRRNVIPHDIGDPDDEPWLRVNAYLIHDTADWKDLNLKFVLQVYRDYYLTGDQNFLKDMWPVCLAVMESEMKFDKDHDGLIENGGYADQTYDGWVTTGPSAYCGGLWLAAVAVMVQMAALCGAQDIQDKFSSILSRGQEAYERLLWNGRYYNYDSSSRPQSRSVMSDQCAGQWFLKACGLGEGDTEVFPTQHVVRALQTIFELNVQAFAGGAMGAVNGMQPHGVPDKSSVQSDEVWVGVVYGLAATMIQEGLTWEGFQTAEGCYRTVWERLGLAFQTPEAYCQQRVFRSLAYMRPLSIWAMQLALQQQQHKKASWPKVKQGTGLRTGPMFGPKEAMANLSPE
Briefly: Inhibition of beta-glucosidase (unknown origin) up to 200 uM.

The species named for assay [5] is Homo sapiens. Briefly: Inhibition of alpha-galactosidase (unknown origin) up to 200 uM.
Assay [6] deals with Alpha amylase (Homo sapiens) (UniProt P0DUB6). Briefly: Inhibition of alpha-amylase (unknown origin) up to 200 uM.
Sequence of Alpha amylase (Homo sapiens) (P0DUB6 whole entry, looked up): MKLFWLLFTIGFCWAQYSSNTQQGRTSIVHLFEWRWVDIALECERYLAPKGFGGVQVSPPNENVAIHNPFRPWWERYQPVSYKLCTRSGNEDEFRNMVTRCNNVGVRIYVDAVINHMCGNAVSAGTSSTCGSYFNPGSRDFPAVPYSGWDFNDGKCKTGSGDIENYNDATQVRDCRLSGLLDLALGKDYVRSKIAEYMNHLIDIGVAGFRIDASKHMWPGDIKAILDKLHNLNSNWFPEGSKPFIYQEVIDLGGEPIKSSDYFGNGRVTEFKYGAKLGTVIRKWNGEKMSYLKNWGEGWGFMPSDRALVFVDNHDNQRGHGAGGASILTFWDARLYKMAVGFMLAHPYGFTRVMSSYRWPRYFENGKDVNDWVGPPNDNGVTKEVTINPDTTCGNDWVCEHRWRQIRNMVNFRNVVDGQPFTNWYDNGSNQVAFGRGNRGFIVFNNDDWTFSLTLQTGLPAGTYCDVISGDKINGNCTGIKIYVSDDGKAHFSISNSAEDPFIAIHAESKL
The species entered for assay [7] is Homo sapiens. Briefly: Inhibition of alpha-mannosidase (unknown origin) up to 200 uM.
The test system of assay [8] is Saccharomyces cerevisiae. The assay can be described thus: Uncompetitive inhibition of baker's yeast alpha-glucosidase using pNPG as substrate assessed as ratio of Kik to Kiv at 1.56 uM by Lineweaver-Burk plot analysis.
For assay [9], the system named is Saccharomyces cerevisiae. The assay can be described thus: Uncompetitive inhibition of baker's yeast alpha-glucosidase using pNPG as substrate assessed as ratio of Kik to Kiv at 0.78 uM by Lineweaver-Burk plot analysis.
Assay [10] deals with Saccharomyces cerevisiae. The assay can be described thus: Uncompetitive inhibition of baker's yeast alpha-glucosidase using pNPG as substrate assessed as ratio of Kik to Kiv at 0.39 uM by Lineweaver-Burk plot analysis.
Assay [11] has as its system Saccharomyces cerevisiae. Briefly: Uncompetitive inhibition of baker's yeast alpha-glucosidase using pNPG as substrate assessed as ratio of Kik to Kiv at 0.19 uM by Lineweaver-Burk plot analysis.

With `O=C(/C=C/c1ccc(O)cc1)NCCc1ccccc1`, in assay [1], the IC50 was determined as 0.31 µM. Also, affinity in assay [2] was put at a Ki of 0.29 µM.
The compound `OC[C@H]1NC[C@H](O)[C@@H](O)[C@@H]1O` [DUVOGLUSTAT] registered an IC50 in assay [1] of […].
Take `COc1cc(/C=C/C(=O)NC(O)C(=O)c2ccc(O)cc2)ccc1O` (centres undefined): in the assay on Saccharomyces cerevisiae [3], the inhibition entry is “Dose-dependent effect”. This compound returned an IC50 in assay [1] of 226 µM. The inhibition result (in assay [4]; in the assay filed under Homo sapiens [5]; in assay [6]; in the assay filed under Homo sapiens [7]) was “inactive” each time.
`O=C(/C=C/c1ccc(O)c(O)c1)NCCc1ccc(O)cc1`: the inhibition result in the assay with Saccharomyces cerevisiae [3] is “Dose-dependent effect”. For the same compound, 1.86 µM corresponded to half-maximal inhibition in [1] (IC50). Moreover, the inhibition result (in [4]; in the assay listed under Homo sapiens [5]; in assay [6]; in the assay filed under Homo sapiens [7]) was “inactive” in each case. In [2], this compound showed a Ki of 1.77 µM.
In assay [1], `O=C(/C=C/c1ccc(O)cc1)NCCc1ccc(F)cc1` had an IC50 of 1.22 µM. Further, the inhibition constant (Ki) in [2] amounted to 1.38 µM.
In the same order, the values of `O=C(CCc1ccc(O)cc1)NCCc1ccc(O)cc1` are 19 µM and 18.2 µM.
On to `COc1cc(/C=C/C(=O)NCC(O)c2ccc(O)cc2)ccc1O` (centres undefined), for which, in the assay with Saccharomyces cerevisiae [3], the inhibition entry was “Dose-dependent effect”. Moreover, in assay [1], the IC50 is 188 µM. Besides, the inhibition result (in assay [4]; in the assay filed under Homo sapiens [5]; in assay [6]; in the assay listed under Homo sapiens [7]) was “inactive” in each case.
For the compound `O=C(/C=C/c1ccc(O)cc1)NCCc1ccc(O)cc1` [N-P-COUMAROYL TYRAMINE], in the assay with Saccharomyces cerevisiae [3], the inhibition entry was “Dose-dependent effect”. In assay [1], this compound showed an IC50 of 0.42 µM. Also, the Ratio in the assay with Saccharomyces cerevisiae [8] worked out at 1.03; with Saccharomyces cerevisiae [9], 1.05; in the assay with Saccharomyces cerevisiae [10] it was 1.04; in the assay on Saccharomyces cerevisiae [11] it was 1.03. The inhibition entry (in assay [4]; in the assay filed under Homo sapiens [5]; in [6]; in the assay filed under Homo sapiens [7]) was “inactive” each time. This compound gave a Ki in [2] of 0.35 µM.
In [1], `O=C(/C=C/c1ccc(O)cc1)NCCc1ccc(O)c(O)c1` yielded an IC50 of 1.63 µM. For the same compound, the Ki in assay [2] amounted to 1.74 µM.
With `O=C(/C=C/c1ccccc1)NCCc1ccc(O)cc1`, in [1], the IC50 amounted to 215 µM.
In the case of `COc1cc(/C=C/C(=O)NCC(=O)c2ccc(O)cc2)ccc1O`, the inhibition entry in the assay with Saccharomyces cerevisiae [3] is “Dose-dependent effect”. In assay [1], this compound showed an IC50 of 61.5 µM. Besides, the inhibition result (in assay [4]; in the assay listed under Homo sapiens [5]; in [6]; in the assay listed under Homo sapiens [7]) was “inactive” throughout. In [2], this compound gave a Ki of 62.1 µM.
As to `COc1cc(/C=C/C(=O)NCCc2ccc(O)cc2)ccc1O` [N-TRANS-FERULOYL TYRAMINE], the inhibition result in the assay on Saccharomyces cerevisiae [3] was “Dose-dependent effect”. The same compound came in with an IC50 in assay [1] of 10.6 µM. Moreover, the inhibition entry (in assay [4]; in the assay listed under Homo sapiens [5]; in assay [6]; in the assay listed under Homo sapiens [7]) was “inactive” throughout. In assay [2], this compound had an inhibitory constant (Ki) of 11.3 µM.
